The text below walks through data of patent US11912723B2, “KRAS modulators and uses thereof” (Quanta Therapeutics, Inc., priority 2022, dated 2024).

As usually defined, the IC50 is the midpoint of a concentration-inhibition curve.

T1 sequence (P01116 1-169 isoform P01116-2 G12D): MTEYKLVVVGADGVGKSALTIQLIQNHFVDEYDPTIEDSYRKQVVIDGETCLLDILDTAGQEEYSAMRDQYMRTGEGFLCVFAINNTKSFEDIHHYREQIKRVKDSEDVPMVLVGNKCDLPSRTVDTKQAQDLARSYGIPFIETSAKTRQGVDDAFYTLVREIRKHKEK

This assay concerns the target T1, KRAS G12D/RAF1 (Homo sapiens, UniProt P01116, G12D).
T1 construct: KRAS (1-169) proteins were expressed in E. coli at 18° C; His6-MBP (N, cleaved yes); made in house; host or cells: E. coli
The assay can be described thus: Protein-protein interaction (PPI) HTRF assay KRAS G12D/RAF1. The format is binding. To be noted: KRAS G12D/RAF1, GppNHp-loaded KRAS; 30 minutes pre-incubation. The method in brief: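 IC50 values come from the 665/615 HTRF ratio, scaled between no-compound (0% inhibition) and untagged RAF1 (100%). GppNHp-exchanged, biotinylated RAS (1-169) solution at 16 nM met compound for 30 min at room temperature. Then 16 nM His-tagged RAF1 (52-131) donor solution was added and incubated 1 h.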
On the technique in general: Time-resolved FRET reads energy transfer from a long-lived donor to a nearby acceptor.
For `O=C(c1nn2c(c1Cl)CN(c1nc(OC[C@@]34CCCN3C[C@H](F)C4)nc3c1CO[C@@]1(CCc4c(Cl)cccc41)C3)CCC2)N1CCOCC1` [Compound 45, [3-chloro-5-[(7S)-4′-chloro-2-[[(2R,8S)-2-fluoro-1,2,3,5,6,7-hexahydropyrrolizin-8-yl]methoxy]spiro[5,8-dihydropyrano[4,3-d]pyrimidine-7,1′-indane]-4-yl]-4,6,7,8-tetrahydropyrazolo[1,5-a][1,4]diazepin-2-yl]-morpholino-methanone], the IC50 was 10 to 100 µM.
The compound `C[C@@]1(NC#N)CCCN(c2nc(OC[C@@]34CCCN3C[C@H](F)C4)nc3c2COC2(CCc4c(Cl)cccc42)C3)C1` (stereo partly drawn) [Compound 46A, [(3R)-1-[(7*)-4′-chloro-2-[[(2R,8S)-2-fluoro-1,2,3,5,6,7-hexahydropyrrolizin-8-yl]methoxy]spiro[5,8-dihydropyrano[4,3-d]pyrimidine-7,1′-indane]-4-yl]-3-methyl-3-piperidyl]cyanamide; 2,2,2-trifluoroacetic acid] had an IC50 of 10 to 100 µM.
Take `CN(C)C(=O)c1nn2c(c1Cl)CN(c1nc(OCC3(CN4CCOCC4)CC3)nc3c1CO[C@@]1(CCc4c(Cl)cccc41)C3)CCC2` [Compound 47, 3-chloro-5-[(7S)-4′-chloro-2-[[1-(morpholinomethyl)cyclopropyl]methoxy]spiro[5,8-dihydropyrano[4,3-d]pyrimidine-7,1′-indane]-4-yl]-N,N-dimethyl-4,6,7,8-tetrahydropyrazolo[1,5-a][1,4]diazepine-2-carboxamide]: the IC50 was greater than 100 µM.
For the compound `O=C(c1nn2c(c1Cl)CN(c1nc(OC[C@@]34CCCN3C[C@H](F)C4)nc3c1CO[C@@]1(CCc4c(Cl)cccc41)C3)CCC2)N1CCNCC1` [Compound 49, [3-chloro-5-[(7S)-4′-chloro-2-[[(2R,8S)-2-fluoro-1,2,3,5,6,7-hexahydropyrrolizin-8-yl]methoxy]spiro[5,8-dihydropyrano[4,3-d]pyrimidine-7,1′-indane]-4-yl]-4,6,7,8-tetrahydropyrazolo[1,5-a][1,4]diazepin-2-yl]-piperazin-1-yl-methanone], the IC50 was 10 to 100 µM.
`CN1CCN(C(=O)c2nn3c(c2Cl)CN(c2nc(OC[C@@]45CCCN4C[C@H](F)C5)nc4c2CO[C@@]2(CCc5c(Cl)cccc52)C4)CCC3)CC1` [Compound 50, [3-chloro-5-[(7S)-4′-chloro-2-[[(2R,8S)-2-fluoro-1,2,3,5,6,7-hexahydropyrrolizin-8-yl]methoxy]spiro[5,8-dihydropyrano[4,3-d]pyrimidine-7,1′-indane]-4-yl]-4,6,7,8-tetrahydropyrazolo[1,5-a][1,4]diazepin-2-yl]-(4-methylpiperazin-1-yl)methanone] registered an IC50 of 10 to 100 µM.
The figure for `CN(C)C(=O)c1nn2c(c1Cl)CN(c1nc(OC[C@@]34CCCN3C[C@H](F)C4)nc3c1CN(C)[C@@]1(CCc4c(Cl)cccc41)C3)CCC2` [Compound 55, 3-chloro-5-((S)-4-chloro-2′-(((2R,7aS)-2-fluorotetrahydro-1H-pyrrolizin-7a(5H)-yl)methoxy)-6′-methyl-2,3,5′,8′-tetrahydro-6′H-spiro[indene-1,7′-pyrido[4,3-d]pyrimidin]-4′-yl)-N,N-dimethyl-5,6,7,8-tetrahydro-4H-pyrazolo[1,5-a][1,4]diazepine-2-carboxamide] is 10 to 100 µM; for `CN1Cc2c(nc(OC[C@@]34CCCN3C[C@H](F)C4)nc2N2CCC[C@]3(C2)NC(=O)NC3=O)C[C@]12CCc1ccccc12` [Compound 60, (5R)-9-[(7S)-2-[[(2R,8S)-2-fluoro-1,2,3,5,6,7-hexahydropyrrolizin-8-yl]methoxy]-6-methyl-spiro[5,8-dihydropyrido[4,3-d]pyrimidine-7,1′-indane]-4-yl]-1,3,9-triazaspiro[4.5]decane-2,4-dione] it is 10 to 100 µM.
Compound `CN(C)C(=O)c1nn2c(c1Cl)CN(c1nc(OC[C@@]34CCCN3C[C@H](F)C4)nc3c1CN(C)[C@@]1(CCc4c(F)ccc(F)c41)C3)CCC2` [Compound 61, 3-chloro-5-[(7S)-4′,7′-difluoro-2-[[(2R,8S)-2-fluoro-1,2,3,5,6,7-hexahydropyrrolizin-8-yl]methoxy]-6-methyl-spiro[5,8-dihydropyrido[4,3-d]pyrimidine-7,1′-indane]-4-yl]-N,N-dimethyl-4,6,7,8-tetrahydropyrazolo[1,5-a][1,4]diazepine-2-carboxamide] registered an IC50 of 10 to 100 µM.
The compound `CN(C)C(=O)c1nn2c(c1Cl)CN(c1nc(OC[C@@]34CCCN3C[C@H](F)C4)nc3c1CN(C)[C@@]1(CCc4cccc(F)c41)C3)CCC2` [Compound 63, 3-chloro-5-[(7S)-7′-fluoro-2-[[(2R,8S)-2-fluoro-1,2,3,5,6,7-hexahydropyrrolizin-8-yl]methoxy]-6-methyl-spiro[5,8-dihydropyrido[4,3-d]pyrimidine-7,1′-indane]-4-yl]-N,N-dimethyl-4,6,7,8-tetrahydropyrazolo[1,5-a][1,4]diazepine-2-carboxamide] yielded an IC50 of 10 to 100 µM.
In turn, `CN(C)C(=O)c1nn2c(c1Cl)CN(c1nc(OC[C@@]34CCCN3C[C@H](F)C4)nc3c1CN(C)[C@@]1(CCc4c(F)cccc41)C3)CCC2` [Compound 65, 3-chloro-5-[(7S)-4′-fluoro-2-[[(2R,8S)-2-fluoro-1,2,3,5,6,7-hexahydropyrrolizin-8-yl]methoxy]-6-methyl-spiro[5,8-dihydropyrido[4,3-d]pyrimidine-7,1′-indane]-4-yl]-N,N-dimethyl-4,6,7,8-tetrahydropyrazolo[1,5-a][1,4]diazepine-2-carboxamide] had an IC50 of 10 to 100 µM.
The value for `CN(C)C(=O)c1nn2c(c1Cl)CN(c1nc(OC[C@@]34CCCN3C[C@H](F)C4)nc3c1CN(C)[C@@]1(CCc4cccc(Cl)c41)C3)CCC2` [Compound 69, 3-chloro-5-[(7S)-7′-chloro-2-[[(2R,8S)-2-fluoro-1,2,3,5,6,7-hexahydropyrrolizin-8-yl]methoxy]-6-methyl-spiro[5,8-dihydropyrido[4,3-d]pyrimidine-7,1′-indane]-4-yl]-N,N-dimethyl-4,6,7,8-tetrahydropyrazolo[1,5-a][1,4]diazepine-2-carboxamide] was 10 to 100 µM.
The figure for `CN(C)C(=O)c1cc2n(n1)CCCN(c1nc(OC[C@@]34CCCN3C[C@H](F)C4)nc3c1CN(C)[C@@]1(CCCc4ccccc41)C3)C2` [Compound 72, 5-[(7S)-2-[[(2R,8S)-2-fluoro-1,2,3,5,6,7-hexahydropyrrolizin-8-yl]methoxy]-6-methyl-spiro[5,8-dihydropyrido[4,3-d]pyrimidine-7,1′-tetralin]-4-yl]-N,N-dimethyl-4,6,7,8-tetrahydropyrazolo[1,5-a][1,4]diazepine-2-carboxamide] is 10 to 100 µM; for `CN1Cc2c(nc(OC[C@@]34CCCN3C[C@H](F)C4)nc2N2CCCn3nc(N)c(Cl)c3C2)C[C@]12CCCc1ccccc12` [Compound 79, 3-chloro-5-[(7S)-2-[[(2R,8S)-2-fluoro-1,2,3,5,6,7-hexahydropyrrolizin-8-yl]methoxy]-6-methyl-spiro[5,8-dihydropyrido[4,3-d]pyrimidine-7,1′-tetralin]-4-yl]-4,6,7,8-tetrahydropyrazolo[1,5-a][1,4]diazepin-2-amine] it is greater than 100 µM.
The value for `CN1Cc2c(nc(OC[C@@]34CCCN3C[C@H](F)C4)nc2N2C[C@H]3CC[C@@H](C2)N3)C[C@]12CCCc1ccccc12` [Compound 84, (7S)-4-[(1R,5S)-3,8-diazabicyclo[3.2.1]octan-3-yl]-2-[[(2R,8S)-2-fluoro-1,2,3,5,6,7-hexahydropyrrolizin-8-yl]methoxy]-6-methyl-spiro[5,8-dihydropyrido[4,3-d]pyrimidine-7,1′-tetralin]] was greater than 100 µM; that for `Cc1nc(-c2nn3c(c2Cl)CN(c2nc(OC[C@@]45CCCN4C[C@H](F)C5)nc4c2CN(C)[C@@]2(CCCc5ccccc52)C4)CCC3)no1` [Compound 87, 3-[3-chloro-5-[(7S)-2-[[(2R,8S)-2-fluoro-1,2,3,5,6,7-hexahydropyrrolizin-8-yl]methoxy]-6-methyl-spiro[5,8-dihydropyrido[4,3-d]pyrimidine-7,1′-tetralin]-4-yl]-4,6,7,8-tetrahydropyrazolo[1,5-a][1,4]diazepin-2-yl]-5-methyl-1,2,4-oxadiazole] was 10 to 100 µM.
As to `CN(C)CC1(COc2nc3c(c(N4CCCn5nc(C(=O)N(C)C)c(Cl)c5C4)n2)CN(C)[C@@]2(CCCc4ccccc42)C3)CC1(F)F` (stereo partly drawn) [Compound 97, 3-chloro-5-[(7S)-2-[[1-[(dimethylamino)methyl]-2,2-difluoro-cyclopropyl]methoxy]-6-methyl-spiro[5,8-dihydropyrido[4,3-d]pyrimidine-7,1′-tetralin]-4-yl]-N,N-dimethyl-4,6,7,8-tetrahydropyrazolo[1,5-a][1,4]diazepine-2-carboxamide], the IC50 was greater than 100 µM.
With `CN1Cc2c(nc(OC[C@@]34CCCN3C[C@H](F)C4)nc2N2CCCn3nc(-c4nnnn4C)c(Cl)c3C2)C[C@]12CCCc1ccccc12` [Compound 99, (7S)-4-[3-chloro-2-(1-methyltetrazol-5-yl)-4,6,7,8-tetrahydropyrazolo[1,5-a][1,4]diazepin-5-yl]-2-[[(2R,8S)-2-fluoro-1,2,3,5,6,7-hexahydropyrrolizin-8-yl]methoxy]-6-methyl-spiro[5,8-dihydropyrido[4,3-d]pyrimidine-7,1′-tetralin]], the IC50 was greater than 100 µM.
